Measurements: US10105357B2, “Indication of antibiotic drugs for preparation of cancer inhibition pharmaceutical composition” (LAUNX BIOMEDICAL CO., LTD., priority 2014, dated 2018)
Like-named read-outs stand apart in the source and are kept apart here.

Legend:
Type in all cases: cell-based, human
cancer cell lines = assay: Cell viability analysis (WST-1) on cancer cell lines; conditions: drug 10 μM, 72 hours, WST-1; Table 3
[1] = system: HI650 (Lung Adenocarcinoma); assay: Cell viability analysis, lung cancer HI650; conditions: Homo sapiens, NCI-H1650, 72 h
[2] = system: A549 (Lung Adenocarcinoma); assay: Cell viability analysis, lung cancer A549; conditions: Homo sapiens, A549, 72 h
[3] = system: AGS (Gastric Adenocarcinoma); assay: Cell viability analysis, gastric cancer AGS; conditions: Homo sapiens, 72 h
[4] = system: MKN-45 (Gastric Adenocarcinoma); assay: Cell viability analysis, gastric cancer MKN-45; conditions: Homo sapiens, MKN-45, 72 h
[5] = system: HepG2 (Hepatocellular Carcinoma); assay: Cell viability analysis, hepatic cancer HepG2; conditions: Homo sapiens, HepG2, 72 h
[6] = system: Hep3B (hepatocellular carcinoma); assay: Cell viability analysis, hepatic cancer Hep3B; conditions: Homo sapiens, Hep3B, 72 h, read-out: The results of antibiotic drug inhibiting cancer cell lines (cell viability analysis), Hep3B
[7] = system: LoVo (Colorectal Adenocarcinoma); assay: Cell viability analysis, colon cancer LoVo; conditions: Homo sapiens, LoVo, 72 h
[8] = system: A375 (Amelanotic Melanoma); assay: Cell viability analysis, skin cancer A375; conditions: Homo sapiens, A-375, 72 h
[9] = system: BCC (basal cell carcinoma); assay: Cell viability analysis, skin cancer BCC; conditions: Homo sapiens, 72 h, read-out: The results of antibiotic drug inhibiting cancer cell lines (cell viability analysis), BCC
[10] = system: HeLa (Cervix Adenocarcinoma); assay: Cell viability analysis, cervical cancer HeLa; conditions: Homo sapiens, HeLa, 72 h
[11] = system: C-33A (Cervical carcinoma); assay: Cell viability analysis, cervical cancer C-33A; conditions: Homo sapiens, C-33-A, 72 h, read-out: The results of antibiotic drug inhibiting cancer cell lines (cell viability analysis), C-33A
[12] = system: TSGH-8301 (Urinary Bladder Carcinoma); assay: Cell viability analysis, bladder cancer TSGH-8301; conditions: Homo sapiens, 72 h
T24 = assay: Cell viability analysis, bladder cancer T24; conditions: Homo sapiens, T-24, 72 h, read-out: The results of antibiotic drug inhibiting cancer cell lines (cell viability analysis), T24
[13] = system: MCF7 (Mammary Gland, Adenocarcinoma); assay: Cell viability analysis, breast cancer MCF7; conditions: Homo sapiens, MCF7, 72 h
[14] = system: MDA-MB-231 (Mammary Gland, Adenocarcinoma); assay: Cell viability analysis, breast cancer MDA-MB-231; conditions: Homo sapiens, MDA-MB-231, 72 h, read-out: The results of antibiotic drug inhibiting cancer cell lines (cell viability analysis), MDA-MB231
BxPC-3 = assay: Cell viability analysis, pancreatic cancer BxPC-3; conditions: Homo sapiens, BXPC-3, 72 h, read-out: The results of antibiotic drug inhibiting cancer cell lines (cell viability analysis), BxPC-3
AsPC-1 = assay: Cell viability analysis, pancreatic cancer AsPC-1; conditions: Homo sapiens, ASPC1, 72 h, read-out: The results of antibiotic drug inhibiting cancer cell lines (cell viability analysis), AsPC-1
NIH: OVCAR-3 = assay: Cell viability analysis, ovarian cancer NIH: OVCAR-3; conditions: Homo sapiens, OVCAR-3, 72 h, read-out: The results of antibiotic drug inhibiting cancer cell lines (cell viability analysis), NIH-OVCAR-3
TOV-21G = assay: Cell viability analysis, ovarian cancer TOV-21G; conditions: Homo sapiens, TOV21G, 72 h, read-out: The results of antibiotic drug inhibiting cancer cell lines (cell viability analysis), TOV-21G
[15] = system: SAS (Tongue squamous cell carcinoma); assay: Cell viability analysis, tongue cancer SAS; conditions: Homo sapiens, 72 h, read-out: The results of antibiotic drug inhibiting cancer cell lines (cell viability analysis), SAS
U-2OS = assay: Cell viability analysis, osteosarcoma U-2OS; conditions: Homo sapiens, U2OS, 72 h, read-out: The results of antibiotic drug inhibiting cancer cell lines (cell viability analysis), U2OS
[16] = system: 786-O (Renal adenocarcinoma); assay: Cell viability analysis, renal cancer 786-O; conditions: Homo sapiens, 786-0, 72 h, read-out: The results of antibiotic drug inhibiting cancer cell lines (cell viability analysis), 786-O
[17] = system: HL-60 (Acute Promyelocytic Leukemia); assay: Cell viability analysis, leukemia HL-60; conditions: Homo sapiens, HL-60, 72 h, read-out: cell viability (survival rate), HL-60, drug 10 μM, 72 hours, WST-1, OD450 nm
[18] = system: PC3 (p53−) (Prostate Adenocarcinoma); assay: Cell viability analysis, prostate cancer PC3; conditions: Homo sapiens, 72 h
[19] = read-out: The results of antibiotic drug inhibiting cancer cell lines (cell viability analysis), H1650, H1650, repeated experiment
[20] = read-out: cell viability (survival rate), H1650, drug 10 μM, 72 hours, WST-1, OD450 nm
[21] = read-out: The results of antibiotic drug inhibiting cancer cell lines (cell viability analysis), A549, A549, repeated experiment
[22] = read-out: cell viability (survival rate), A549, drug 10 μM, 72 hours, WST-1, OD450 nm
[23] = read-out: The results of antibiotic drug inhibiting cancer cell lines (cell viability analysis), AGS, repeated experiment
[24] = read-out: cell viability (survival rate), AGS, drug 10 μM, 72 hours, WST-1, OD450 nm
[25] = read-out: The results of antibiotic drug inhibiting cancer cell lines (cell viability analysis), MKN-45, MKN-45, repeated experiment
[26] = read-out: cell viability (survival rate), MKN-45, drug 10 μM, 72 hours, WST-1, OD450 nm
[27] = read-out: The results of antibiotic drug inhibiting cancer cell lines (cell viability analysis), HepG2, HepG2, repeated experiment
[28] = read-out: cell viability (survival rate), HepG2, drug 10 μM, 72 hours, WST-1, OD450 nm
[29] = read-out: The results of antibiotic drug inhibiting cancer cell lines (cell viability analysis), LoVo, repeated experiment
[30] = read-out: cell viability (survival rate), LoVo, drug 10 μM, 72 hours, WST-1, OD450 nm
[31] = read-out: The results of antibiotic drug inhibiting cancer cell lines (cell viability analysis), A375, A375, repeated experiment
[32] = read-out: cell viability (survival rate), A375, drug 10 μM, 72 hours, WST-1, OD450 nm
[33] = read-out: The results of antibiotic drug inhibiting cancer cell lines (cell viability analysis), HeLa, repeated experiment
[34] = read-out: cell viability (survival rate), HeLa, drug 10 μM, 72 hours, WST-1, OD450 nm
[35] = read-out: The results of antibiotic drug inhibiting cancer cell lines (cell viability analysis), TSGH-8301, TSGH-8301, repeated experiment
[36] = read-out: cell viability (survival rate), TSGH, drug 10 μM, 72 hours, WST-1, OD450 nm
[37] = read-out: The results of antibiotic drug inhibiting cancer cell lines (cell viability analysis), MCF-7, MCF-7, repeated experiment
[38] = read-out: cell viability (survival rate), MCF7, drug 10 μM, 72 hours, WST-1, OD450 nm

| Compound | inhibition effect on different cancer cell lines (cancer cell lines) | viability at 10 µM [1, 19] [%] | viability at 10 µM [1, 20] [%] | viability at 10 µM [2, 21] [%] | viability at 10 µM [2, 22] [%] | viability at 10 µM [3, 23] [%] | viability at 10 µM [3, 24] [%] | viability at 10 µM [4, 25] [%] | viability at 10 µM [4, 26] [%] | viability at 10 µM [5, 27] [%] | viability at 10 µM [5, 28] [%] | viability at 10 µM [6] [%] | viability at 10 µM [8, 31] [%] | viability at 10 µM [8, 32] [%] | viability at 10 µM [9] [%] | viability at 10 µM [10, 33] [%] | viability at 10 µM [10, 34] [%] | viability at 10 µM [11] [%] | viability at 10 µM [12, 35] [%] | viability at 10 µM [12, 36] [%] | also measured |
| --- | --- | --- | --- | --- | --- | --- | --- | --- | --- | --- | --- | --- | --- | --- | --- | --- | --- | --- | --- | --- | --- |
| N=C(N)c1ccc(OCCCCCOc2ccc(C(=N)N)cc2)cc1 [Pentamidine] | significant inhibition effect | 68.5 | 65.8 | 35.4 | 51.8 | 92.4 | 50.6 | 97.3 | 86.3 | 69.1 | 76.4 | 72 | 49.8 | 38.2 | 45.8 | 44.6 | 55.9 | 65.7 | 82.7 | 59.3 | viability at 10 µM [7, 29]: 63.4%; viability at 10 µM [7, 30]: 74.4%; viability at 10 µM (T24): 123%; viability at 10 µM [13, 37]: 60.5%; viability at 10 µM [13, 38]: 68.5%; viability at 10 µM [14]: 79%; viability at 10 µM (BxPC-3): 55%; viability at 10 µM (AsPC-1): 66.2%; viability at 10 µM (NIH: OVCAR-3): 90.9%; viability at 10 µM (TOV-21G): 82.9%; viability at 10 µM [15]: 50.9%; viability at 10 µM (U-2OS): 43.9%; viability at 10 µM [16]: 67.3%; viability at 10 µM [17]: 57.8% |
| CO[C@H]1/C=C/O[C@@]2(C)Oc3c(C)c(O)c4c(O)c(c5c(nc6cc(C)ccn65)c4c3C2=O)NC(=O)/C(C)=C\C=C\[C@H](C)[C@H](O)[C@@H](C)[C@@H](O)[C@@H](C)[C@H](OC(C)=O)[C@@H]1C [Rifaximin (Xifaxan), Rifaximin] | significant inhibition effect | 69.5 | 82.4 | 108 | 35.1 | 98.1 | 93.2 | 93.5 | 52.7 | 115 | 102 | 110 | 98.2 | 59.5 | 81.8 | 106 | 54 | 107 | 114 | 61.3 | viability at 10 µM ([18]; read-out: The results of antibiotic drug inhibiting cancer cell lines (cell viability analysis), PC-3, PC-3, repeated experiment): 95.3%; viability at 10 µM ([18]; read-out: cell viability (survival rate), PC3, drug 10 μM, 72 hours, WST-1, OD450 nm): 67.1%; viability at 10 µM (T24): 96.8%; viability at 10 µM [13, 37]: 89.9%; viability at 10 µM [13, 38]: 40.1%; viability at 10 µM [14]: 98.7%; viability at 10 µM (BxPC-3): 89%; viability at 10 µM (AsPC-1): 71.2%; viability at 10 µM (NIH: OVCAR-3): 100%; viability at 10 µM (TOV-21G): 88%; viability at 10 µM [15]: 69.8%; viability at 10 µM (U-2OS): 72.9%; viability at 10 µM [16]: 87.6%; viability at 10 µM [17]: 100% |
| O=c1[nH]c(=O)n([C@H]2C[C@H](O)[C@@H](CO)O2)cc1C(F)(F)F [Trifluridine (Viroptic), Trifluridine] | significant inhibition effect | 78 | 71 | 61.6 | 36.5 | 83.2 | 64.4 | 89.5 | 43.6 | 85.6 | 90.2 | 77.6 | 59.4 | 48.6 | 83.3 | 86.9 | 51.8 | 66.5 | 86.4 | 51.3 | viability at 10 µM [7, 29]: 62.5%; viability at 10 µM [7, 30]: 72.1%; viability at 10 µM (T24): 55.4%; viability at 10 µM [13, 37]: 79.6%; viability at 10 µM [13, 38]: 36.3%; viability at 10 µM [14]: 75.1%; viability at 10 µM (BxPC-3): 73.1%; viability at 10 µM (AsPC-1): 62.1%; viability at 10 µM (NIH: OVCAR-3): 105%; viability at 10 µM (TOV-21G): 81.4%; viability at 10 µM [15]: 33.5%; viability at 10 µM (U-2OS): 61.2%; viability at 10 µM [16]: 37.9%; viability at 10 µM [17]: 88.9% |
